As usually defined, the IC50 is the concentration at which inhibition is half-maximal. The low end stands for inhibition by little substance, the high end for a need for much substance.

One data set deals with IL-1β secretion of THP-1 cells (Homo sapiens, UniProt Q96P20). Description: Effect of NLRP3 inhibitor on IL-1β secretion of THP-1 cells (AlphaLISA). It counts as cell-based. Conditions: PMA 50nM, LPS 100ng/ml, Nigericin 10µM, IL-1β in supernatant. The protocol: This experiment used the PerkinElmer AlphaLISA_human_IL1β kit (AL220 C/F). The detection buffer was RPMI-1640+10FBS. AlphaLISA Immunoassay Buffer, AlphaLISA Anti-IL1β Acceptor beads, Streptavidin (SA)-coated Donor beads, and Biotinylated Antibody Anti-IL1β were all included in the kit.
IL-1β secretion of THP-1 cells, sequence (Q96P20 whole entry): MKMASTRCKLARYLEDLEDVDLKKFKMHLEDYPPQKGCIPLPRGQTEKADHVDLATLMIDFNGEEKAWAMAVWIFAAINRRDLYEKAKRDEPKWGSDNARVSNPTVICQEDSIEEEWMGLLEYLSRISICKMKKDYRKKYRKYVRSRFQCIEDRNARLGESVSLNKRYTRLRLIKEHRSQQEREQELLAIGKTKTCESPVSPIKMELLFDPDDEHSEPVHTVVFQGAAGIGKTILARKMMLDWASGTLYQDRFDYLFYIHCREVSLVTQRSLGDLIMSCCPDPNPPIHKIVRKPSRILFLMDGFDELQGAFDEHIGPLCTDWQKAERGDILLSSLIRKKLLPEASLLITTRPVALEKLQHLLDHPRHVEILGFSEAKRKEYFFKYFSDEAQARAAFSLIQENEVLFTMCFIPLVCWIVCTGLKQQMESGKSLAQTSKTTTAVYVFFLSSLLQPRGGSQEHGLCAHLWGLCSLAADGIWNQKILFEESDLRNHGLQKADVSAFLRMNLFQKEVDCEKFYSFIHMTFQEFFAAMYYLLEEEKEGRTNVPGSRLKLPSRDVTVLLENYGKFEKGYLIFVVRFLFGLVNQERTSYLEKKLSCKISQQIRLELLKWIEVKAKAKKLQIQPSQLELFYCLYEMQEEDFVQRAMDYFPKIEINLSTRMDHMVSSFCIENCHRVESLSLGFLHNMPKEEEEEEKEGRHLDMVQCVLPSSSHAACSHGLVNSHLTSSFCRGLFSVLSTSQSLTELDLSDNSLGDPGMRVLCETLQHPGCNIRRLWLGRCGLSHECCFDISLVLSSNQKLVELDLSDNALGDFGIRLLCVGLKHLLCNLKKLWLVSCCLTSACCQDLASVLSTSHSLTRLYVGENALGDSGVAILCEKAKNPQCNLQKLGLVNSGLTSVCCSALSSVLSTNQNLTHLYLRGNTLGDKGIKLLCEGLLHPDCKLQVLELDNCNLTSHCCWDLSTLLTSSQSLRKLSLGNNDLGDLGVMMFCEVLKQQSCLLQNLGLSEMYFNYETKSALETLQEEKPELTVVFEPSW
The density of THP1 cells was adjusted to 4×10^5 cells/mL, PMA (final concentration 50nM) was added, inoculated into 96-well flat-bottom plates at 200µL/well, and stimulated overnight at 37°C, 5% CO2 (try to <16h). The next day, the supernatant was discarded, and the flat washed twice with DPBS (200µL/time). Then LPS solution (final concentration of 100ng/ml) was added at 198µL/well , incubated at 37°C, 5% CO2 for 3h. 1µL of the corresponding concentration of compounds was added to each well according to the experimental MAP, incubated at 37°C, 5% CO2 for 1h. 1µL Nigericin (final concentration of 10µM) was added to each well, incubated overnight at 5% CO2 (>18h). On the third day, 5µL of supernatant was taken, diluted 20 times, and the content of IL-Iβ in the supernatant was detected by Human Interleukin 1 beta (IL1β) Kit. Envision was used to read the AlphaLISA test value of Ex = 680/ Em = […]. GraphPad Prism 9.5.0 was used to analyze the data, and the IC50 value of the compound for IL-Iβ antagonism was fitted by four-parameter Logistic. […] Table 2: Results of IC50 experiments using THP-1 cells to detect NLRP3 inhibitors
In turn, `CCN1CCC[C@H](Nc2nc3nc(-c4c(C)cc(C(F)(F)F)cc4O)cc(C)n3n2)C1` [compound 462] came in with an IC50 of less than 50 nM.

`Cc1cc(C(F)(F)F)cc(O)c1-c1ccc2oc(N[C@@H]3CCCN(CCO)C3)nc2n1` [compound 404] came in with an IC50 of less than 50 nM. On the same count and under the same terms, as for `Cc1cc(C(F)(F)F)cc(O)c1-c1ccc2oc(NC[C@@H](C)O)nc2n1` [compound 413], the figure is 50 to 100 nM. Still for that read-out and setting: then `Cc1cc(C(F)(F)F)cc(O)c1-c1ccc2[nH]c(NCC(C)(C)O)nc2n1` [Compound 6], with 100 to 500 nM; and `Cc1cc(C(F)(F)F)cc(O)c1-c1ccc2nc(N3CCOCC3)nn2n1` [compound 423], with 100 to 500 nM; and `CCS(=O)(=O)N1CCN(c2nc3nc(-c4c(C)cc(C(F)(F)F)cc4O)ccc3o2)C[C@@H]1C` [compound 394], with 50 to 100 nM.

Turning to `Cc1cc(C(F)(F)F)cc(O)c1-c1ccc2oc(N[C@@H]3CCCN(C(C)C)C3)nc2n1` [compound 400], the IC50 was less than 50 nM. With `Cc1cc(C(F)(F)F)cc(O)c1-c1ccc2nc(N[C@@H]3CCCN(C)C3)nn2n1` [compound 445], the IC50 was less than 50 nM. Regarding `Cc1cc(C(F)(F)F)cc(O)c1-c1ccc2oc(N3CCN(S(C)(=O)=O)CC3)nc2n1` [compound 390], the concentration for half-maximal inhibition (IC50) is less than 50 nM. In turn, `Cc1cc(C(F)(F)F)cc(O)c1-c1cc(C)n2nc(N3CCOCC3)nc2n1` [compound 440] displayed an IC50 of 50 to 100 nM. `Cc1cc(C(F)(F)F)cc(O)c1-c1ccc2oc(N[C@@H]3CCCN(C4CC4)C3)nc2n1` [compound 399] registered an IC50 of less than 50 nM. `Cc1cc(C(F)(F)F)cc(O)c1-c1cc(C)c2nc(N3CCOCC3)nn2n1` [compound 424] had an IC50 of less than 50 nM. On the same count and under the same terms, as for `CCN1CCC[C@@H](n2ccc3cc(-c4c(C)cc(C(F)(F)F)cc4O)nnc32)C1` [11-a], the figure is less than 50 nM; as for `Cc1cc(C(F)(F)F)cc(O)c1-c1ccc2nc(N3CCS(=O)(=O)CC3)nn2n1` [compound 422], 100 to 500 nM.

For `CCS(=O)(=O)N1CCN(c2nc3nc(-c4c(C)cc(C(F)(F)F)cc4O)ccc3o2)CC1` [compound 388], the IC50 lay within 50 to 100 nM.

As for `Cc1cc(C(F)(F)F)cc(O)c1-c1cc(C)n2nc(N[C@@H]3CCCN(C)C3)nc2n1` [compound 443], the IC50 was less than 50 nM. Same read-out and setting: as for `CCN1CCC[C@@H](Nc2nc3c(C)cc(-c4c(C)cc(C(F)(F)F)cc4O)nn3n2)C1` [compound 447], the figure is less than 50 nM; as for `Cc1cc(C(F)(F)F)cc(O)c1-c1cc(C)n2nc(N[C@H]3CCCN(CCO)C3)nc2n1` [compound 460], less than 50 nM; as for `Cc1cc(Cl)cc(O)c1-c1ccc2oc(N3CCS(=O)(=O)CC3)nc2n1` [compound 387], 50 to 100 nM.

With `Cc1cc(C(F)(F)F)cc(O)c1-c1ccc2oc(N3CC4CCC(C3)O4)nc2n1` [compound 381], the IC50 lay within 100 to 500 nM. In turn, `CCN1CCC[C@@H](Nc2nc3nc(-c4c(C)cc(C(F)(F)F)cc4O)ccn3n2)C1` [compound 448] displayed an IC50 of less than 50 nM. As to `Cc1cc(C(F)(F)F)cc(O)c1-c1ccc2oc(N3CCS(=O)(=O)CC3)nc2n1` [compound 384], the IC50 is less than 50 nM. `CC(=O)NC[C@@H]1COCCN1c1nc2c(C)cc(-c3c(C)cc(C(F)(F)F)cc3O)nn2n1` [compound 442]: the IC50 was less than 50 nM. Same read-out and setting: then `Cc1cc(C(F)(F)F)cc(O)c1-c1ccn2nc(N3CCOCC3)nc2n1` [compound 426], with less than 50 nM; and `CCN1CCC[C@@H](N2CC(=O)Nc3cc(-c4c(C)cc(C(F)(F)F)cc4O)nnc32)C1` [12-a], with less than 50 nM. The same measure, in the same setting: then `Cc1cc(C(F)(F)F)cc(O)c1-c1ccc2oc(N3CCOC[C@H]3C)nc2n1` [compound 371], with 50 to 100 nM; and `Cc1cc(C(F)(F)F)cc(O)c1-c1ccc2oc(N3CCN(S(=O)(=O)C4CC4)CC3)nc2n1` [compound 392], with less than 50 nM; and `CC(=O)NC[C@@H]1COCCN1c1nc2nc(-c3c(C)cc(C(F)(F)F)cc3O)cc(C)n2n1` [compound 441], with less than 50 nM. As to `Oc1cc(Cl)cc(O)c1-c1ccc2oc(N3CCOCC3)nc2n1` [compound 376], the concentration for half-maximal inhibition (IC50) was less than 50 nM. The same measure, in the same setting: then `Cc1cc(C(F)(F)F)cc(O)c1-c1cc(C)c2nc(N[C@@H]3CCCN(C)C3)nn2n1` [compound 446], with less than 50 nM. `Cc1cc(C(F)(F)F)cc(O)c1-c1ccn2nc(N[C@@H]3CCCN(C)C3)nc2n1` [compound 444] came in with an IC50 of less than 50 nM.

In turn, `CCN1CCC[C@@H](Nc2nc3ccc(-c4c(C)cc(C(F)(F)F)cc4O)nn3n2)C1` [compound 439] yielded an IC50 of less than 50 nM.

For the compound `CCN1C[C@H](F)C[C@@H](Nc2nc3nc(-c4c(C)cc(C(F)(F)F)cc4O)ccc3o2)C1` [compound 397], the IC50 fell in the range of 100 to 500 nM.

Tested on in a further data set: not listed separately
Description: Liver microsome metabolic stability, mouse. Format: in vitro ADME, mice. Conditions: mouse (m) liver microsomes 0.5 mg/ml, 45 min; read-out: LMS (h,r,m) (% rem, 45 min). As for the experimental part: (§1) Purpose: This experiment investigates the metabolic stability of the compound in liver microsomes of different species such as humans, mice and rats, and the residual content of the test compound after incubation with liver microsomes of different species such as humans, mice and rats.
(§2) Preparation of 500 µM solution of target compound and positive control: 5 µL of each 10 mM stock solution was taken, added to 95 µL acetonitrile, and mixed for 30 s;
(§3) Preparation of 6 mM NADPH solution: 100 mM Stock aliquot liquid was diluted with Mg-Mg-K-Buffer.
(§4) • 2.1.1 Liver microsome solution: 18.75 µL of 20 mg/mL HLM, RLM, MLM, DLM, MOLM (final concentration: 0.5 mg/ml) were taken and placed them in each well of a 96-well plate; • 2.1.2 1.5 µL of 500 µM solution of each compound was added respectively; • 2.1.3 479.8 µL of phosphate buffer was taken, then added to each compound well, and mixed at 1000 rpm in an oscillating mixer for 10 s.
(§5) 30 µL of the above samples were taken and aliquoted to a new 96-well plates respectively (including NADPH group, n=2, and no NADPH group at 0 and 45 min, n=1), marked as 0, 5, 15, 30 and 45 min; […]
(§6) The slope was calculated based on the LN value of the compound concentration percentage and time as the coordinate axis, and the residual content of the compound after incubation with liver microsomes was calculated based on the slope and formula. […]
(Liver microsomes are vesicles of endoplasmic reticulum, rich in cytochrome P450 enzymes.)
As to `CC(=O)N1CCOC[C@H]1CNc1nc2nc(-c3c(C)cc(C(F)(F)F)cc3O)ccc2o1` [Compound 111], the remaining at 0.75 h, 1 µM was determined as 91.3%.

Tested on in a further data set: not listed separately
Put plainly: Liver microsome metabolic stability, rat. Conditions: rat (r) liver microsomes 0.5 mg/ml, 45 min; read-out: LMS (h,r,m) (% rem, 45 min). Format: in vitro ADME, rats. As for the experimental part: as §1, §2, §3, §4, §5, §6
Consider `CC(=O)N1CCOC[C@H]1CNc1nc2nc(-c3c(C)cc(C(F)(F)F)cc3O)ccc2o1` [Compound 111], for which the remaining at 0.75 h, 1 µM amounted to 82.5%.

A further data set has as its system iodoacetic acid (MIA)-induced SD rat knee osteoarthritis model. Put plainly: Efficacy on iodoacetic acid-induced SD rat knee osteoarthritis model. It counts as in vivo, SD rats. Conditions: 30mg/kg orally once a day from Day 7 to Day 42. As for the experimental part:
Purpose: Evaluate the efficacy of MCC950 (Positive reference compound) and compound 111 of the present invention on iodoacetic acid (MIA)-induced SD rat knee osteoarthritis model. Experimental materials: Experimental male SD rats, 4 weeks old. Model induction began after the experimental animals were adapted to the animal environment for 7 days. Day 0, the rats were anesthetized, the hair around the left knee joint was removed, and the skin was disinfected. The left leg was flexed 90° to expose the patellar platform. The depression in the middle of the platform was touched by hand to find the femoral condyle, patella and ligament. The syringe needle was inserted from the bottom of the patella on both sides of the patellar ligament to the direction of the femoral condyle. When a clear sense of empty space was felt, 50µL of iodoacetic acid solution was injected. Day 7 Grouping was performed according to the width of the knee joint on the induced side. The groups were: normal control group (healthy control without modeling, 5% DMSO+10% Solutol+85% Saline), model blank control group (5% DMSO+10% Solutol+85% Saline), MCC950 30mg/kg, and compound 111 of the present invention 30mg/kg. Starting from Day 7, the normal control group and the model blank control group were given the solvent (5% DMSO+10% Solutol+85% Saline) orally once a day, and the other groups were given the corresponding compounds orally once a day until the end of the administration on Day 42. The knee joint width and body weight of the rats were measured once on Day 7, 14, 21, 28, 35, and 42. This experiment tested the efficacy of MCC950 (Positive compound) and compound 111 of the present invention on the SD rat knee osteoarthritis model induced by iodoacetic acid (MIA), see Figures 1 and 2.
As for `CC(=O)N1CCOC[C@H]1CNc1nc2nc(-c3c(C)cc(C(F)(F)F)cc3O)ccc2o1` [Compound 111], the “body weight of the rats” value is “without affecting the body weight of the rats”.

Staying with this data set, now noted: 30mg/kg orally once a day from Day 7 to Day 42; compared with the model blank control group, 21 days to 42 days after modeling.
`CC(=O)N1CCOC[C@H]1CNc1nc2nc(-c3c(C)cc(C(F)(F)F)cc3O)ccc2o1` [Compound 111]: the “widening of the knee joints” value was “significantly inhibit the widening of the knee joints”. Take `CC(C)(O)c1coc(S(=O)(=O)NC(=O)Nc2c3c(cc4c2CCC4)CCC3)c1` [MCC950, reference compound]: the “widening of the knee joints” value was “significantly inhibit the widening of the knee joints”.

Tested on in a further data set: not listed separately
Description: Liver microsome metabolic stability, human. It counts as in vitro ADME, humans. Conditions: human (h) liver microsomes 0.5 mg/ml, 45 min; read-out: LMS (h,r,m) (% rem, 45 min). As for the experimental part:
as §1, §2, §3, §4, §5, §6
Consider `CC(=O)N1CCOC[C@H]1CNc1nc2nc(-c3c(C)cc(C(F)(F)F)cc3O)ccc2o1` [Compound 111], for which the remaining at 0.75 h, 1 µM is 93.2%.

The record behind these values is patent EP4667468A1, “COMPOUND FOR INHIBITING NLRP3, PREPARATION METHOD, AND USE” (Shenzhen Zhongge Biological Technology Co., Ltd., priority 2023, dated 2024).
